{"source": "patent US20050282833A1", "about": "“Pharmacological treatment of psoriasis” (priority 2002, published 2005)", "molecules": {"B1": {"name": "daclizumab: monoclonal antibody masking the cellular receptor CD25 for IL-2 (antibody, chains of the INN, looked up, V domains shown)", "VH": "QVQLVQSGAEVKKPGSSVKVSCKASGYTFTSYRMHWVRQAPGQGLEWIGYINPSTGYTEYNQKFKDKATITADESTNTAYMELSSLRSEDTAVYYCARGGGVFDYWGQGTLVTVSS", "VL": "DIQMTQSPSTLSASVGDRVTITCSASSSISYMHWYQQKPGKAPKLLIYTTSNLASGVPARFSGSGSGTEFTLTISSLQPDDFATYYCHQRSTYPLTFGQGTKVEVK"}, "B2": {"name": "IL-10: cytokine, inhibitor of Th1-type cell priming and Th2-type mediator (protein, UniProt P22301 19-178, looked up)", "Interleukin-10": "SPGQGTQSENSCTHFPGNLPNMLRDLRDAFSRVKTFFQMKDQLDNLLLKESLLEDFKGYLGCQALSEMIQFYLEEVMPQAENQDPDIKAHVNSLGENLKTLRLRLRRCHRFLPCENKSKAVEQVKNAFNKLQEKGIYKAMSEFDIFINYIEAYMTMKIRN"}}, "key": {"[1]": {"system": "cytomegalovirus (CMV)", "conditions": "ranking among herpes viruses; cited from earlier work"}, "[2]": {"system": "human herpesvirus (HHV-6)", "conditions": "ranking among herpes viruses; cited from earlier work"}, "[3]": {"system": "patient with a history of plaque psoriasis", "assay": "Case study 1: valacyclovir treatment of a plaque psoriasis patient", "assay_type": "in vivo, human", "protocol": "A patient with a history of plaque psoriasis over the last several years was diagnosed by their physician. Patient was treated with valacyclovir tablets at 500 mg taken 2 times a day for 20 days."}, "[4]": {"system": "patient with a history of reoccurring plaque psoriasis", "assay": "Case study 2: Valtrex (valacyclovir) treatment of a plaque psoriasis patient", "assay_type": "in vivo, human", "conditions": "tablets 500 mg 3 times a day for several weeks, then 1.0 gram 3 times a day for several weeks; person", "protocol": "A person with a history of reoccurring plaque psoriasis over the last 30 years, as diagnosed by their physician, began treatment with […] (valacyclovir) tablets at 500 mg taken 3 times a day for several weeks. Dosage of […] increased to 1.0 gram taken 3 times a day for several weeks. Both the psoriatic lesions and other symptoms associated with psoriasis improved and cleared to 75-80% recovery."}, "[5]": {"system": "patients with psoriasis", "conditions": "cited from earlier work"}, "[6]": {"system": "patients with psoriatic lesions / psoriatic arthritis", "conditions": "cited from earlier work"}, "[7]": {"system": "patients with psoriasis", "conditions": "10 week trial, cited from earlier work"}, "[8]": {"system": "pustular psoriasis", "conditions": "in vivo; cited from earlier work"}, "[9]": {"system": "patients with plaque psoriasis", "conditions": "after 8 weeks of therapy; cited from earlier work"}, "[10]": {"system": "psoriatic lesions of patients", "conditions": "once daily over 24 days; cited from earlier work"}}, "data": [{"molecule": "Nc1nc2c(ncn2COCCO)c(=O)[nH]1", "note": "[acyclovir]", "values": [{"measurement": "activity against virus", "setting": "[1]", "value": "least active"}, {"measurement": "activity against virus", "setting": "[2]", "value": "least active"}]}, {"molecule": "CC(C)[C@H](N)C(=O)OCCOCn1cnc2c(=O)[nH]c(N)nc21", "note": "[valacyclovir]", "values": [{"measurement": "reoccurrence of the psoriatic symptoms", "setting": "[3]; since treatment ended", "value": "No reoccurrence"}, {"measurement": "recovery from the psoriasis", "setting": "[3]; tablets 500 mg 2 times a day for 20 days, person, plaque psoriasis", "value": "complete recovery"}, {"measurement": "recovery (psoriatic lesions and other symptoms improved and cleared)", "setting": "[4]", "value": "75-80%"}]}, {"molecule": "basiliximab", "values": [{"measurement": "long-lasting clearing of lesions after last treatment", "setting": "[5]; one patient with acute exacerbating psoriasis", "value": "more than 10 weeks"}, {"measurement": "improvement of lesions", "setting": "[5]; second patient with stable chronic plaque psoriasis", "value": "did not show improvement"}]}, {"molecule": "etanercept", "values": [{"measurement": "mean improvement of psoriatic lesions", "setting": "[6]; 12 weeks", "value": 46, "unit": "%"}, {"measurement": "response to treatment in patients diagnosed with psoriatic arthritis", "setting": "[6]; psoriatic arthritis", "value": 73, "unit": "%"}]}, {"molecule": "hu1124: anti-CD11a-antibody", "values": [{"measurement": "patients with headaches, chills, and fever", "setting": "[7]", "value": "over half of the patients"}, {"measurement": "improvement of psoriasis", "setting": "[7]; high dose group", "value": "only moderate improvement"}]}, {"molecule": "infliximab: monoclonal antibody directed against TNF-α", "values": [{"measurement": "treating and sustaining clearing of pustular psoriasis", "setting": "[8]", "value": "highly effective"}]}, {"molecule": "B1", "values": [{"measurement": "patients experiencing a reduction in severity of plaque psoriasis", "setting": "[9]", "value": 30, "unit": "%"}]}, {"molecule": "B2", "values": [{"measurement": "improvement to psoriatic lesions", "setting": "[10]", "value": "some improvement"}]}]}
